We go through four compounds from paper PMC3626661, “Functional Specificity of Sex Pheromone Receptors in the Cotton Bollworm Helicoverpa armigera” (PLoS ONE, 2013).

Common to all, as to test: two-electrode voltage clamp in Xenopus oocytes, dose-response
Type in all cases: cell-based
(In general: Two-electrode voltage clamp holds a large cell at a set potential and records current.)

The target in one test is T1, HarmOR6 (Helicoverpa armigera, UniProt R4JSE3).
T1 construct: gene OR6; full-length ORF; with HarmOrco (HarmOR2)
T1 sequence (R4JSE3 1-425): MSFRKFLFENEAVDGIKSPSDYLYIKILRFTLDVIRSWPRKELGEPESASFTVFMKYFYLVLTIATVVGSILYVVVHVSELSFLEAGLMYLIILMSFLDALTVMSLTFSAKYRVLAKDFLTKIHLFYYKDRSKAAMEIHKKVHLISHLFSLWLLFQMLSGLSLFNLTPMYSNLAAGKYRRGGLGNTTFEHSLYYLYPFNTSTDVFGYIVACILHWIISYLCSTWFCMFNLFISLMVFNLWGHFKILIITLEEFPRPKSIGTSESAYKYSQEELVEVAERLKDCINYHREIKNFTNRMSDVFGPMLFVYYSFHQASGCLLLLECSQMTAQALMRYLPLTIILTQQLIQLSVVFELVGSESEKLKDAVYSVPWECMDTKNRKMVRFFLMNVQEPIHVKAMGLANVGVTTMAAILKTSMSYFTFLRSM
T1 sequence (A0A075TD45 1-473 partner): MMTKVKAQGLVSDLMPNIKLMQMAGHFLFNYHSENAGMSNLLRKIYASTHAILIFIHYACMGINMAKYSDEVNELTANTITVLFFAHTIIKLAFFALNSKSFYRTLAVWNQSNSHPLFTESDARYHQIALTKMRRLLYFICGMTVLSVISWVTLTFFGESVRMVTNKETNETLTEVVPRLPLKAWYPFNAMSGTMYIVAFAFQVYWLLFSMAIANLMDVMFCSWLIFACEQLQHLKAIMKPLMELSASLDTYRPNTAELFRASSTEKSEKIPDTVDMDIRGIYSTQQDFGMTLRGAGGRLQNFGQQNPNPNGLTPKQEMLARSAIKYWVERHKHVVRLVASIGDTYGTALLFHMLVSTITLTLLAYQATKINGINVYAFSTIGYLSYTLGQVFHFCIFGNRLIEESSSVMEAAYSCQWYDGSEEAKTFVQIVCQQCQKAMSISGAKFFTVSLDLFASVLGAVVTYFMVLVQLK
An excerpt: two-electrode voltage clamp in Xenopus oocytes, dose-response on HarmOR6 | Dose–response curve of HarmOR6/HarmOR2 Xenopus oocytes to Z9-16:Ald. | Dose–response curve of HarmOR6/HarmOR2 Xenopus oocytes to Z9-14:Ald.

In another test the target is T2, HarmOR13 (Helicoverpa armigera, UniProt A0A075TD52).
T2 construct: gene OR13; full-length ORF; with HarmOrco (HarmOR2)
T2 sequence (A0A075TD52 1-425): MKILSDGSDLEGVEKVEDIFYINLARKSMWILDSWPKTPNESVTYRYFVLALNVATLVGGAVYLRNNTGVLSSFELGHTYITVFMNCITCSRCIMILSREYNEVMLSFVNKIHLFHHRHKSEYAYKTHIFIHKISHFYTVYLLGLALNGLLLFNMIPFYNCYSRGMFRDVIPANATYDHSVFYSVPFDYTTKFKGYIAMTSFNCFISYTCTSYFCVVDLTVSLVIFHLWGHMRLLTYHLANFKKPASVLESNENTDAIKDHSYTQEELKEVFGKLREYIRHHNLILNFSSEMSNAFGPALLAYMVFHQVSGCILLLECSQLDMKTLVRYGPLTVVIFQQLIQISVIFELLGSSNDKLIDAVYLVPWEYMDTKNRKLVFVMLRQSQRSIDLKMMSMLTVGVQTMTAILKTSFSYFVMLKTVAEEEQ
T2 sequence (A0A075TD45 1-473 partner): T1 sequence (A0A075TD45 1-473 partner)

For the next test, the target named is T3, HarmOR16 (Helicoverpa armigera, UniProt C6K7B8).
T3 construct: full-length ORF; with HarmOrco (HarmOR2)
T3 sequence (C6K7B8 1-422): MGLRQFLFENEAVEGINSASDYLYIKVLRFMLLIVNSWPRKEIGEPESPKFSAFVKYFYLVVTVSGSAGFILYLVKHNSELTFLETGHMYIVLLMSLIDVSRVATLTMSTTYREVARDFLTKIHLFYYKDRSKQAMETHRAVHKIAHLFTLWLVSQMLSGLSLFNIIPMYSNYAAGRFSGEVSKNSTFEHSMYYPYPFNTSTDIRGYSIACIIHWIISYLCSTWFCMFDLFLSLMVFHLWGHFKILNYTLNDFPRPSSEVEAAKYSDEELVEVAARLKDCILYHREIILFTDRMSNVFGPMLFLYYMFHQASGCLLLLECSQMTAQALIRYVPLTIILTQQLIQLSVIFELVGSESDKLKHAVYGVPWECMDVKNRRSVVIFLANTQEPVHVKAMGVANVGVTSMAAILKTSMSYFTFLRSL
T3 sequence (A0A075TD45 1-473 partner): T1 sequence (A0A075TD45 1-473 partner)
An excerpt:
two-electrode voltage clamp in Xenopus oocytes, dose-response on HarmOR16 | Dose–response curve of HarmOR16/HarmOR2 Xenopus oocytes to Z11-16:OH.

SMILES strings stand for the structures.

`CCCC/C=C\CCCCCCCC=O` [Z9-14:Ald, (Z)-9-tetradecenal]: the EC50 on HarmOR6 turned out to be 4.34 µM.
Turning to `CCCCCC/C=C\CCCCCCCC=O` [Z9-16:Ald, (Z)-9-hexadecenal], on HarmOR6, the EC50 was 3.53 µM.
For the compound `CCCC/C=C\CCCCCCCCCC=O` [Z11-16:Ald, (Z)-11-hexadecenal], on HarmOR13, a half-maximal effect (EC50) was put at 1820 nM.
Turning to `CCCC/C=C\CCCCCCCCCCO` [Z11-16:OH, (Z)-11-hexadecen-1-ol], a half-maximal effect on HarmOR16 (EC50) was put at 299 nM.

A word on the EC50: it is the concentration needed to bring the measured effect to its halfway point.
